{"source": "patent EP0094564A2", "about": "“Azolyl-methyl oxiranes, their preparation and use as medicaments and plant protecting agents” (BASF Aktiengesellschaft, priority 1982, dated 1983)", "key": {"Pullularia pullulans": {"tested_on": "Pullularia pullulans", "test": "Versuch 5: filter paper disc inhibition zone test on malt extract agar", "assay_type": "cell-based", "details": "72 h, discs soaked with 0,2 ml of 200 ppm solution, 3 days at 22 to 24 °C, read-out: Wirksamkeit gegen Pullularia pullulans", "protocol": "Filtrierpäpierscheiben mit einem Durchmesser von 13 mm und einer Stärke von 1 mm werden mit 0,2 ml Lösungen getränkt, die jeweils 200 Teile Wirkstoff je Million Teile Lösung (ppm) enthalten. Die Scheiben werden dann auf einem 2 %igen Malzextraktagar in Petrischalen gelegt, die zuvor getrennt mit Sporen des holzverfärbenden Pilzes Pullularia pullulans beimpft wurden. Anschließend werden die Schalen 3 Tage lang bei 22 bis 24 °C bebrütet. Nach dieser Zeit hat sich der Pilz in den Kontrollschalen sehr gut entwickelt.\nDie fungizide Wirksamkeit der Wirkstoffe wird anhand der um die Filtrierpapierscheiben herum entstandenen pilzfreien Zonen (Hemmhöfe) wie folgt beurteilt: […]"}, "Chaetomium globosum": {"tested_on": "Chaetomium globosum", "test": "Versuch 6: fungal growth on malt extract agar containing active ingredient", "assay_type": "cell-based", "set-up": "key: 0 = kein Pilzwachstum (Pilzmyzel abgetötet); 1 = geringes Pilzwachstum (bis 1/3 der Agaroberfläche bewachsen); 3 = mittleres Pilzwachstum (bis 2/3 der Agaroberfläche bewachsen); 5 = ungehemmtes Pilzwachstum (gesamte Agaroberfläche bewachsen)", "details": "40 ppm in 5 % malt extract agar; 5 days at 25 °C; growth score", "from_the_text": "(§1) Die Wirkstoffe werden in Aceton gelöst, in Mengen von 40 ppm einem verflüssigten 5 %igen Malzextraktagar zugesetzt. Der Agar wird in Petrischalen ausgegossen und nach dem Erstarren werden die fungizidhaltigen Nähragarplatten zentral mit Myzel der holzzerstörenden Pilze Coniophora puteana und Trametes versicolor, des Moderfäule und Stockflecken verursachenden Pilzes Chaetomium globosum sowie mit Sporen des grünen Holzschimmels Trichoderma viride beimpft.\n(§2) Nach fünftägiger Bebrütung der Schalen bei 25 °C wird die Entwicklung der Pilzkolonien auf dem Nährboden im Vergleich mit der Kontrolle (ohne Wirkstoff-Zusatz) beurteilt: • 0 = kein Pilzwachstum (Pilzmyzel abgetötet) • 1 = geringes Pilzwachstum (bis 1/3 der Agaroberfläche bewachsen) • 3 = mittleres Pilzwachstum (bis 2/3 der Agaroberfläche bewachsen) • 5 = ungehemmtes Pilzwachstum (gesamte Agaroberfläche bewachsen)"}, "Coniophora puteana": {"tested_on": "Coniophora puteana", "test": "Versuch 6: fungal growth on malt extract agar containing active ingredient", "assay_type": "cell-based", "set-up": "key: 0 = kein Pilzwachstum (Pilzmyzel abgetötet); 1 = geringes Pilzwachstum (bis 1/3 der Agaroberfläche bewachsen); 3 = mittleres Pilzwachstum (bis 2/3 der Agaroberfläche bewachsen); 5 = ungehemmtes Pilzwachstum (gesamte Agaroberfläche bewachsen)", "details": "40 ppm in 5 % malt extract agar; 5 days at 25 °C; growth score", "from_the_text": "as §1, §2"}, "Trametes versicolor": {"tested_on": "Trametes versicolor", "test": "Versuch 6: fungal growth on malt extract agar containing active ingredient", "assay_type": "cell-based", "set-up": "key: 0 = kein Pilzwachstum (Pilzmyzel abgetötet); 1 = geringes Pilzwachstum (bis 1/3 der Agaroberfläche bewachsen); 3 = mittleres Pilzwachstum (bis 2/3 der Agaroberfläche bewachsen); 5 = ungehemmtes Pilzwachstum (gesamte Agaroberfläche bewachsen)", "details": "40 ppm in 5 % malt extract agar; 5 days at 25 °C; growth score", "from_the_text": "as §1, §2"}, "Trichoderma viride": {"tested_on": "Trichoderma viride", "test": "Versuch 6: fungal growth on malt extract agar containing active ingredient", "assay_type": "cell-based", "set-up": "key: 0 = kein Pilzwachstum (Pilzmyzel abgetötet); 1 = geringes Pilzwachstum (bis 1/3 der Agaroberfläche bewachsen); 3 = mittleres Pilzwachstum (bis 2/3 der Agaroberfläche bewachsen); 5 = ungehemmtes Pilzwachstum (gesamte Agaroberfläche bewachsen)", "details": "40 ppm in 5 % malt extract agar; 5 days at 25 °C; growth score", "from_the_text": "as §1, §2"}, "Abs. corym. 1": {"tested_on": "Abs. corym. 1", "test": "Agar dilution test, minimal inhibitory concentration in vitro", "assay_type": "cell-based", "details": "read-out: Minimale Hemmkonzentration (MHK) Abs. corym. 1", "from_the_text": "(§3) Die Wirkung gegen Dermatophyten, Bakterien und Protozonen kann nach Methoden, wie sie beispielsweise in P. Klein, Bakteriologische Grundlagen der chemotherapeutischen Laboratoriumspraxis, Springer-Verlag Berlin, 1957, beschrieben wird, aufgezeigt werden. Die überraschende Wirkung gegenüber Hefen wurde im Pseudomyzel- und Myzelphasentest mit Candida albicans nachgewiesen (vgl. DE-OS 30 10 093). Es wurde geprüft, welche minimalen Hemmkonzentrationen (MHK-Werte) im Agardilutionstest erreicht werden. In der Tabelle 1 sind die Ergebnisse zusammengefaßt."}, "Aps.fum. 2": {"tested_on": "Aps.fum. 2", "test": "Agar dilution test, minimal inhibitory concentration in vitro", "assay_type": "cell-based", "details": "read-out: Minimale Hemmkonzentration (MHK) Aps.fum. 2", "from_the_text": "as §3"}, "E.coli muta-flor": {"tested_on": "E.coli muta-flor", "test": "Agar dilution test, minimal inhibitory concentration in vitro", "assay_type": "cell-based", "details": "Escherichia coli, read-out: Minimale Hemmkonzentration (MHK) E.coli muta-flor", "from_the_text": "as §3"}, "Epid. flocc. 157": {"tested_on": "Epid. flocc. 157", "test": "Agar dilution test, minimal inhibitory concentration in vitro", "assay_type": "cell-based", "details": "read-out: Minimale Hemmkonzentration (MHK) Epid. flocc. 157", "from_the_text": "as §3"}, "Microsp. ferrug. 5": {"tested_on": "Microsp. ferrug. 5", "test": "Agar dilution test, minimal inhibitory concentration in vitro", "assay_type": "cell-based", "details": "read-out: Minimale Hemmkonzentration (MHK) Microsp. ferrug. 5", "from_the_text": "as §3"}, "Mucor pus. 6": {"tested_on": "Mucor pus. 6", "test": "Agar dilution test, minimal inhibitory concentration in vitro", "assay_type": "cell-based", "details": "read-out: Minimale Hemmkonzentration (MHK) Mucor pus. 6", "from_the_text": "as §3"}, "Staph. aur. SG 511": {"tested_on": "Staph. aur. SG 511", "test": "Agar dilution test, minimal inhibitory concentration in vitro", "assay_type": "cell-based", "details": "read-out: Minimale Hemmkonzentration (MHK) Staph. aur. SG 511", "from_the_text": "as §3"}, "Strept. faec. 8043": {"tested_on": "Strept. faec. 8043", "test": "Agar dilution test, minimal inhibitory concentration in vitro", "assay_type": "cell-based", "details": "read-out: Minimale Hemmkonzentration (MHK) Strept. faec. 8043", "from_the_text": "as §3"}, "Trichoph. ment. 21": {"tested_on": "Trichoph. ment. 21", "test": "Agar dilution test, minimal inhibitory concentration in vitro", "assay_type": "cell-based", "details": "read-out: Minimale Hemmkonzentration (MHK) Trichoph. ment. 21", "from_the_text": "as §3"}, "Cand.alb. H": {"tested_on": "Cand.alb. H", "test": "Candida albicans pseudomycelium/mycelium phase test, MIC", "assay_type": "cell-based", "details": "in vitro, column H, read-out: Minimale Hemmkonzentration (MHK) Cand.alb. H", "from_the_text": "as §3"}, "Cand.alb. M": {"tested_on": "Cand.alb. M", "test": "Candida albicans pseudomycelium/mycelium phase test, MIC (column M)", "assay_type": "cell-based", "details": "in vitro, read-out: Minimale Hemmkonzentration (MHK) Cand.alb. M", "from_the_text": "as §3"}, "Entamoeb hist.": {"tested_on": "Entamoeb hist.", "test": "Minimal inhibitory concentration in vitro (protozoa)", "assay_type": "cell-based", "details": "read-out: Minimale Hemmkonzentration (MHK) Entamoeb hist.", "from_the_text": "as §3"}, "Trichom. vag.": {"tested_on": "Trichom. vag.", "test": "Minimal inhibitory concentration in vitro (protozoa)", "assay_type": "cell-based", "details": "read-out: Minimale Hemmkonzentration (MHK) Trichom. vag.", "from_the_text": "as §3"}, "[1]": {"tested_on": "Weizenbraunrost (Puccinia recondita)", "test": "Versuch 2: activity against wheat brown rust on wheat seedlings", "assay_type": "in vivo", "details": "0,025; 0,006; 0,0015 %ige Spritzbrühen; sprayed 24 h after inoculation; assessed after 8 days; value given as 'beispielsweise'", "protocol": "Blätter von in Töpfen gewachsenen Weizensämlingen der Sorte \"Jubilar\" wurden mit Sporen des Braunrostes (Puccinia recondita) bestäubt. Danach wurden die Töpfe für 24 Stunden bei 20 bis 22°C in eine Kammer mit hoher Luftfeuchtigkeit (90 bis 95 %) gestellt. Während dieser Zeit keimten die Sporen aus und die Keimschläuche drangen in das Blattgewebe ein. Die infizierten Pflanzen wurden anschließend mit wäßrigen Spritzbrühen, die 80 % Wirkstoff und 20 % Emulgiermittel in der Trockensubstanz enthielten, tropfnaß gespritzt. Nach dem Antrocknen des Spritzbelages wurden die Versuchspflanzen im Gewächshaus bei Temperaturen zwischen 20 und 22°C und 65 bis 70 % relativer Luftfeuchte aufgestellt. Nach 8 Tagen wurde das Ausmaß der Rostpilzentwicklung auf den Blättern ermittelt."}, "Botrytis cinerea": {"tested_on": "Botrytis cinerea", "test": "Versuch 4: activity against Botrytis cinerea on paprika seedlings", "assay_type": "in vivo", "details": "0,05 %ige Spritzbrühe; sprayed before inoculation; assessed after 5 days; value given as 'beispielsweise'", "from_the_text": "Paprikasämlinge der Sorte \"Neusiedler Ideal Elite\" wurden, nachdem sich 4 bis 5 Blätter gut entwickelt hatten, mit wäßrigen Suspensionen, die 80 % Wirkstoff und 20 % Emulgiermittel in der Trockensubstanz enthielten, tropfnaß gespritzt. Nach dem Antrocknen des Spritzbelages wurden die Pflanzen mit einer Konidienaufschwemmung des Pilzes Botrytis cenerea besprüht und bei 22 bis 24 C in eine Kammer mit hoher Luftfeuchtigkeit gestellt. Nach 5 Tagen hatte sich die Krankheit auf den unbehandelten Kontrollpflanzen so stark entwickelt, daß die entstandenen Blattnekrosen den überwiegenden Teil der Blätter bedeckten."}, "[2]": {"tested_on": "Weizenmehltau (Erysiphe graminis var. tritici)", "test": "Versuch 1: activity against wheat powdery mildew on wheat seedlings", "assay_type": "in vivo", "details": "0,025; 0,006; 0,0015 %ige Spritzbrühen; sprayed 24 h before inoculation; assessed after 7 days; value given as 'beispielsweise'", "protocol": "Blätter von in Töpfen gewachsenen Weizenkeimlingen der Sorte \"Jubilar\" wurden mit wäßriger Spritzbrühe, die 80 % (Gew.%) Wirkstoff und 20 % Emulgiermittel in der Trockensubstanz enthielt, besprüht und 24 Stunden nach dem Antrocknen des Spritzbelages mit Oidien (Sporen) des Weizenmehltaus (Erysiphe graminis var. tritici) bestäubt. Die Versuchspflanzen wurden anschließend im Gewächshaus bei Temperaturen zwischen 20 und 22 °C und 75 bis 80 % relativer Luftfeuchtigkeit aufgestellt. Nach 7 Tagen wurde das Ausmaß der Mehltauentwicklung ermittelt."}, "[3]": {"tested_on": "Gurkenmehltau (Erysiphe cichoracearum)", "test": "Versuch 3: activity against cucumber powdery mildew on cucumber seedlings", "assay_type": "in vivo", "details": "0,025 %ige Spritzbrühe; sprayed about 20 h after inoculation; assessed after 21 days; value given as 'beispielsweise'", "from_the_text": "Blätter von in Töpfen gewachsenen Gurkenkeimlingen der Sorte \"Chinesische Schlange\" wurden im Zweiblattstadium mit einer Sporensuspension des Gurkenmehltaus (Erysiphe cichoracearum) besprüht. Nach etwa 20 Stunden wurden die Versuchspflanzen mit wäßriger Spritzbrühe, die 80 % Wirkstoff und 20 % Emulgiermittel in der Trockensubstanz enthielt, bis zur Tropfnässe besprüht. Nach dem Antrocknen des J Spritzbelages wurden sie anschließend im Gewächshaus bei Temperaturen zwischen 20 und 22^00 und 70 bis 80 % relativer Luftfeuchtigkeit aufgestellt. Zur Beurteilung der Wirksamkeit der neuen Stoffe wurde das Ausmaß der Pilzentwicklung nach 21 Tagen beurteilt."}}}
{"smiles": "CC1(Cn2cncn2)OC1c1ccc(Cl)cc1Cl", "note": "(single isomer, unassigned) [Beispiel 22]", "values": [{"measurement": "zone of inhibition at 200 ppm", "setting": "Pullularia pullulans", "result": "> 6", "unit": "mm"}, {"measurement": "Wirksamkeit gegen Chaetomium globosum", "setting": "Chaetomium globosum", "result": 1}, {"measurement": "Wirksamkeit gegen Coniophora puteana", "setting": "Coniophora puteana", "result": 1}, {"measurement": "Wirksamkeit gegen Trametes versicolor", "setting": "Trametes versicolor", "result": 0}, {"measurement": "Wirksamkeit gegen Trichoderma viride", "setting": "Trichoderma viride", "result": 1}]}
{"smiles": "COc1cccc(C2OC2(Cn2cncn2)c2ccc(Cl)cc2)c1", "note": "(single isomer, unassigned) [Beispiel 30]", "values": [{"measurement": "MIC", "setting": "Abs. corym. 1", "result": 16, "unit": "µg/mL"}, {"measurement": "MIC", "setting": "Aps.fum. 2", "result": "> 128", "unit": "µg/mL"}, {"measurement": "MIC", "setting": "E.coli muta-flor", "result": "> 128", "unit": "µg/mL"}, {"measurement": "MIC", "setting": "Epid. flocc. 157", "result": 8, "unit": "µg/mL"}, {"measurement": "MIC", "setting": "Microsp. ferrug. 5", "result": 2, "unit": "µg/mL"}, {"measurement": "MIC", "setting": "Mucor pus. 6", "result": 8, "unit": "µg/mL"}, {"measurement": "MIC", "setting": "Staph. aur. SG 511", "result": "> 128", "unit": "µg/mL"}, {"measurement": "MIC", "setting": "Strept. faec. 8043", "result": "> 128", "unit": "µg/mL"}, {"measurement": "MIC", "setting": "Trichoph. ment. 21", "result": 8, "unit": "µg/mL"}, {"measurement": "MIC", "setting": "Cand.alb. H", "result": 64, "unit": "µg/mL"}, {"measurement": "MIC", "setting": "Cand.alb. M", "result": 2, "unit": "µg/mL"}, {"measurement": "MIC", "setting": "Entamoeb hist.", "result": "> 1", "unit": "µg/mL"}, {"measurement": "MIC", "setting": "Trichom. vag.", "result": "> 16", "unit": "µg/mL"}, {"measurement": "fungizide Wirkung gegen Weizenbraunrost", "setting": "[1]", "result": 100, "unit": "%"}, {"measurement": "fungizide Wirkung gegen Botrytis cinerea an Paprika", "setting": "Botrytis cinerea", "result": 97, "unit": "%"}]}
{"smiles": "Clc1ccc(C2OC2(Cn2cncn2)c2ccc(-c3ccccc3)cc2)cc1", "note": "(single isomer, unassigned) [Beispiel 42]", "values": [{"measurement": "fungizide Wirkung gegen Weizenmehltau", "setting": "[2]", "result": 100, "unit": "%"}, {"measurement": "fungizide Wirkung gegen Weizenbraunrost", "setting": "[1]", "result": 100, "unit": "%"}, {"measurement": "fungizide Wirkung gegen Gurkenmehltau", "setting": "[3]", "result": 100, "unit": "%"}, {"measurement": "fungizide Wirkung gegen Botrytis cinerea an Paprika", "setting": "Botrytis cinerea", "result": 97, "unit": "%"}, {"measurement": "zone of inhibition at 200 ppm", "setting": "Pullularia pullulans", "result": "> 6", "unit": "mm"}, {"measurement": "Wirksamkeit gegen Chaetomium globosum", "setting": "Chaetomium globosum", "result": 0}, {"measurement": "Wirksamkeit gegen Coniophora puteana", "setting": "Coniophora puteana", "result": 0}, {"measurement": "Wirksamkeit gegen Trametes versicolor", "setting": "Trametes versicolor", "result": 0}, {"measurement": "Wirksamkeit gegen Trichoderma viride", "setting": "Trichoderma viride", "result": 0}]}
{"smiles": "Fc1ccc(C2OC2(Cn2cncn2)c2ccc(Cl)cc2)cc1", "note": "(single isomer, unassigned) [Beispiel 50]", "values": [{"measurement": "zone of inhibition at 200 ppm", "setting": "Pullularia pullulans", "result": "> 6", "unit": "mm"}, {"measurement": "Wirksamkeit gegen Chaetomium globosum", "setting": "Chaetomium globosum", "result": 0}, {"measurement": "Wirksamkeit gegen Coniophora puteana", "setting": "Coniophora puteana", "result": 0}, {"measurement": "Wirksamkeit gegen Trametes versicolor", "setting": "Trametes versicolor", "result": 0}, {"measurement": "Wirksamkeit gegen Trichoderma viride", "setting": "Trichoderma viride", "result": 0}]}
